Experimental data published in patent US20120094829A1, “Active Compound Combinations Having Insecticidal and Acaricidal Properties” (BAYER CROPSCIENCE AG, priority 2009, published 2012).

What was measured:
Assay type in all cases: in vivo
Myzus persicae = Myzus persicae test (spray treatment of infested cabbage leaves); conditions: single active compound; for Kill in % after 1d: 4 g/ha; for Kill in % after 6d: 0.8 g/ha
Description: (§1) Solvents: 78 parts by weight of acetone • • 1.5 parts by weight of dimethylformamide
(§2) Emulsifier: 0.5 part by weight of alkylaryl polyglycol ether
(§3) To produce a suitable preparation of active compound, 1 part by weight of active compound is mixed with the stated amount of solvent and emulsifier, and the concentrate is diluted with emulsifier-containing water to the desired concentration.
Cabbage leaves (Brassica oleracea) which are heavily infested by the green peach aphid (Myzus persicae) are treated by spraying with the active compound preparation of the desired concentration.
After the desired period of time, the kill in % is determined. 100% means that all of the aphids have been killed; 0% means that none of the aphids have been killed. The kill rates determined are entered into Colby's formula (see above).

Tetranychus urticae = Tetranychus urticae test (OP-resistant/spray treatment of bean leaf discs); conditions: single active compound
Description: Tetranychus urticae Test (OP-Resistant/Spray Treatment)
as §1, §2, §3
Discs of bean leaves (Phaseolus vulgaris) which are infested by all stages of the greenhouse red spider mite (Tetranychus urticae) are sprayed with the active compound preparation of the desired concentration.
After the desired period of time, the effect in % is determined. 100% means that all of the spider mites have been killed; 0% means that none of the spider mites have been killed.

[1] = system: Phaedon cochleariae larvae; experiment: Phaedon cochleariae larvae test (sprayed cabbage leaves); conditions: single active compound
Description: Phaedon cochleariae Larvae Test
as §1, §2, §3
Cabbage leaves (Brassica oleracea) are treated by spraying with the active ingredient formulation of the desired concentration and populated with larvae of the mustard beetle (Phaedon cochleariae) while the leaves are still moist.
After the desired period of time, the kill in % is determined. 100% means that all beetle larvae have been killed; 0% means that none of the beetle larvae have been killed. The kill rates determined are entered into Colby's formula (see above).

Spodoptera frugiperda = Spodoptera frugiperda test (sprayed cabbage leaves); conditions: 100 g/ha, single active compound
Description: Spodoptera frugiperda Test
as §1, §2, §3
Cabbage leaves (Brassica oleracea) are treated by being sprayed with the preparation of active compound of the desired concentration and are populated with larvae of the armyworm (Spodoptera frugiperda) while the leaves are still moist.
After the desired period of time, the kill in % is determined. 100% means that all caterpillars have been killed; 0% means that none of the caterpillars have been killed. The kill rates determined are entered into Colby's formula (see above).

Compound	Kill in % after 1d (Myzus persicae)	Kill in % after 2d (Tetranychus urticae; 4 g/ha)	Kill in % after 6d (Tetranychus urticae; 4 g/ha)	Kill in % after 2d ([1]; 100 g/ha)	Kill in % after 6d (Myzus persicae)	Kill in % after 6d (Spodoptera frugiperda)	Kill in % after 2d ([1]; 20 g/ha)	Kill in % after 6d ([1]; 20 g/ha)	Kill in % after 2d (Tetranychus urticae; 20 g/ha)
Cc1cc(C)c(C2=C(OC(=O)CC(C)(C)C)C3(CCCC3)OC2=O)c(C)c1 [spiromesifen, reference compound]	0%	20%	70%	–	–	–	–	–	–
O=C1C=C(N(CCF)Cc2ccc(Cl)nc2)CO1 [compound (I-4), 4-{[(6-chloropyrid-3-yl)methyl](2-fluoroethyl)amino}furan-2(5H)-one]	20%	0%	0%	33%	0%	0%	–	–	–
CCC(C)(C)C(=O)OC1=C(c2ccc(Cl)cc2Cl)C(=O)OC12CCCCC2 [spirodiclofen, reference compound]	0%	–	–	–	–	–	–	–	–
spirotetramat [reference compound]	–	20%	–	50%	20%	0%	0%	0%	70%
O=C1C=C(N(Cc2ccc(Cl)nc2)CC(F)F)CO1 [compound (I-5), 4-{[(6-chloropyrid-3-yl)methyl](2,2-difluoroethyl)amino}furan-2(5H)-one]	–	0%	0%	–	30%	–	0%	–	0%
CN(Cc1cnc(Cl)c(F)c1)C1=CC(=O)OC1 [compound (I-6), 4-{[(6-chloro-5-fluoropyrid-3-yl)methyl](methyl)amino}furan-2(5H)-one]	–	0%	0%	–	–	–	–	0%	–
